Test results reported in patent publication US11999737B2, “Kinase inhibitors and related methods of use” (Duke University, priority 2014, dated 2024).

Legend:
[1] = target: GFP-ZIPK (Homo sapiens, UniProt O43293); assay: FLECS elution of GFP-ZIPK from γ-linked ATP Sepharose media; format: binding; conditions: titration from ATP Sepharose
[2] = target: PIM3-GFP (Homo sapiens, UniProt Q86V86); assay: FLECS elution of PIM3-GFP from γ-linked ATP Sepharose media; format: binding; conditions: titration from ATP Sepharose; calculated from EC50; read-out: apparent Kd, elution of PIM3-GFP

Sequence of GFP-ZIPK (O43293 whole entry): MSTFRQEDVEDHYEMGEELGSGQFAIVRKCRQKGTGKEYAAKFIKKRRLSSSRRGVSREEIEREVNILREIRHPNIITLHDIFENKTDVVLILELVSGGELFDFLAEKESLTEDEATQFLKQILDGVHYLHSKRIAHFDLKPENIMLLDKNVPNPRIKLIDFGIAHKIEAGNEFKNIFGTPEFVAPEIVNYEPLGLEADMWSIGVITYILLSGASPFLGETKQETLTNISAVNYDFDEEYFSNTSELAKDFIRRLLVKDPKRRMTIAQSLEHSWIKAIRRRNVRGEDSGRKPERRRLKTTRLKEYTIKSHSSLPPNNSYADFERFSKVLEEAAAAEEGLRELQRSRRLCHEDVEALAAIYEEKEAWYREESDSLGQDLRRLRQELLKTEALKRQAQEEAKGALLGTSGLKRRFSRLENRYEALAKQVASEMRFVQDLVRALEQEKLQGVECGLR

- elution of full length GFP-ZIPK [1]: failed to elute
- Kd [2]: 201 nM
Structure (SMILES): O=S(=O)(c1cccc2c(I)cccc12)N1CCCNCC1 [ML-7, reference compound]
